# What was measured:
# Plasmodium falciparum [1] = assay: Antimalarial activity against chloroquine-sensitive Plasmodium falciparum D6 infected in human erythrocytes by SYBR green 1-based fluorescence assay; assay type: functional, organism-based
# Plasmodium falciparum [2] = assay: Antimalarial activity against multidrug-resistant Plasmodium falciparum Dd2 infected in human erythrocytes by SYBR green 1-based fluorescence assay; assay type: functional, organism-based
# Plasmodium falciparum [3] = assay: Antimalarial activity against multidrug-resistant Plasmodium falciparum 7G8 infected in human erythrocytes by SYBR green 1-based fluorescence assay; assay type: functional, organism-based
# Plasmodium falciparum [4] = assay: Antimalarial activity against atovaquone-resistant Plasmodium falciparum Tm90-C2B infected in human erythrocytes by SYBR green 1-based fluorescence assay; assay type: functional, organism-based
# HepG2 = assay: Cytotoxicity against human HepG2 cells measured after 24 to 36 hrs by resazurin dye based fluorescence assay; assay type: cell-based
# [5] = Selectivity index, ratio of IC50 for human HepG2 cells to IC50 for chloroquine-sensitive Plasmodium falciparum D6 infected in human erythrocytes; assay type: toxicity, cell-based; conditions: read-out: Ratio IC50
SMILES,IC50 (Plasmodium falciparum [1]) [nM],IC50 (Plasmodium falciparum [2]) [nM],IC50 (Plasmodium falciparum [3]) [nM],IC50 (Plasmodium falciparum [4]) [nM],IC50 (HepG2) [nM],selectivity ratio [5]
CCN(CC)CCOc1ccc2c(=O)c3cc(F)c(OCCN(CC)CC)cc3[nH]c2c1,116,209,774,386,> 200000,> 12500
CCN(CC)CCOc1ccc2c(=O)c3cc(F)c(OC)cc3[nH]c2c1,156,448,533,622,> 200000,> 1280
CCN(CC)CCNc1ccc2c(=O)c3cc(F)c(OC)cc3[nH]c2c1,526,1170,1300,1510,126000,239
CCCN(CCC)CCOc1ccc2[nH]c3cc(Cl)cc(OC)c3c(=O)c2c1,30,11,32,96,36800,1220
CCCCNCCCOc1ccc2c(=O)c3c(Cl)c(Cl)ccc3[nH]c2c1,46,37,106,68,22700,492
O=c1c2ccc(OCCN3CCOCC3)cc2[nH]c2ccc(Cl)c(Cl)c12,65,38,273,196,> 100000,> 1540
CCCN(CCC)CCOc1ccc2c(=O)c3ccc(C(F)(F)F)cc3[nH]c2c1,26,0.44,5.6,1540,> 100000,> 3850
CCN(CC)CCOc1ccc2c(=O)c3cc(Cl)c(Cl)cc3[nH]c2c1,44,132,73,507,> 100000,> 2270
CN(C)CCOc1ccc2c(=O)c3c(Cl)c(Cl)ccc3[nH]c2c1,393,2000,1250,> 2500,> 100000,> 254
CCCN(CCC)CCOc1ccc2[nH]c3cc(OC)cc(Cl)c3c(=O)c2c1,79,92,288,558,> 100000,> 1270
CCN(CC)CCOc1ccc2c(=O)c3cc(Cl)cc(Cl)c3[nH]c2c1,928,> 2500,1290,> 2500,35000,38
CCCN(CCC)CCOc1ccc2[nH]c3cc(F)cc(OC)c3c(=O)c2c1,35,105,175,> 250,55700,1590
O=c1c2ccc(OCCCCl)cc2[nH]c2ccc(Cl)cc12,24,38,51,371,> 100000,> 4170
CC(C)(C)NCCCOc1ccc2c(=O)c3c(Cl)c(Cl)ccc3[nH]c2c1,196,1360,1630,> 2500,24800,127
CCCN(CCC)CCOc1ccc2[nH]c3ccc(Cl)c(Cl)c3c(=O)c2c1,99,17,32,274,12700,128
CCN(CC)CCCOc1ccc2c(=O)c3c(F)cc(F)cc3[nH]c2c1,32,7.8,44,705,38600,1210
O=c1c2ccc(OCCCCl)cc2[nH]c2cc(F)cc(F)c12,1.4,0.3,1.9,89,> 100000,> 71400

SMILES,IC50 (Plasmodium falciparum [1]) [nM],IC50 (Plasmodium falciparum [2]) [nM],IC50 (Plasmodium falciparum [3]) [nM],IC50 (Plasmodium falciparum [4]) [nM],IC50 (HepG2) [nM],selectivity ratio [5]
O=c1c2ccc(OCCCl)cc2[nH]c2cc(Cl)cc(Cl)c12,14,12,44,409,> 100000,> 7140
CCN(CC)CCOc1ccc2[nH]c3ccc(Cl)cc3c(=O)c2c1,159,399,521,297,> 100000,> 629
CCN(CC)CCOc1ccc2c(=O)c3ccc(C(F)(F)F)cc3[nH]c2c1,816,555,1540,1390,38600,47
CN(C)CCOc1ccc2c(=O)c3ccc(Cl)cc3[nH]c2c1,56,63,70,563,59000,1050
CCN(CC)CCOc1ccc2c(=O)c3cc(F)c(F)cc3[nH]c2c1,146,187,110,270,> 200000,> 1370
CC(C)(C)NCCCOc1ccc2c(=O)c3c(F)cc(F)cc3[nH]c2c1,115,8.9,627,2500,41500,361
O=c1c2ccc(OCCCCl)cc2[nH]c2cc(Cl)c(Cl)cc12,179,161,2330,945,> 100000,> 558
CCN(CC)CCOc1ccc2c(=O)c3c(Cl)ccc(Cl)c3[nH]c2c1,506,1300,848,> 2500,77000,152
CCN(CC)CCOc1ccc2c(=O)c3ccc(Cl)cc3n(CCN(CC)CC)c2c1,49,77,86,71,> 40000,> 816
CCCN(CCC)CCOc1ccc2[nH]c3cc(Cl)c(Cl)cc3c(=O)c2c1,26,17,14,58,> 100000,> 3850
CC(C)(C)NCCCOc1ccc2c(=O)c3cc(Cl)ccc3[nH]c2c1,674,1020,> 2500,2140,75200,112
O=c1c2ccc(OCCCl)cc2[nH]c2cc(F)cc(F)c12,5,7,22,46,> 200000,> 40000
CCN(CC)CCOc1ccc2c(=O)c3ccc(Cl)c(Cl)c3[nH]c2c1,749,2440,> 2500,> 2500,46000,61
CC(C)(C)NCCCOc1ccc2c(=O)c3cc(Cl)c(Cl)cc3[nH]c2c1,123,589,421,551,6100,49
CCCCNCCCOc1ccc2c(=O)c3c(Cl)cc(Cl)cc3[nH]c2c1,101,186,294,82,11100,110
CCCN(CCC)CCOc1ccc2c(=O)c3c(OC)cc(Cl)cc3[nH]c2c1,251,184,251,> 2500,45000,179
